# Laboratory results published in ChEMBL document CHEMBL6153079, “Discovery of noncovalent diaminopyrimidine-based Inhibitors for glioblastoma via a dual FAK/DNA targeting strategy” (Eur J Med Chem, 2025).
# Activity calls are given as the source filed them. The calls are words filed in the database; no cut-off is given here.
# What was measured:
# U-87 MG [1] = test: Induction of cell cycle arrest in human U-87 MG cells assessed as accumulation of cells at […] at 4 uM by propidium Iodide staining based flow cytometry analysis (reference value: 1.67%); format: functional, U-87MG ATCC
# U-87 MG [2] = test: Induction of apoptosis in human U-87 MG cells assessed as early apoptotic cells at 4 uM measured upto 24 hrs by Annexin V-FITC/PI staining based flow cytometry analysis (reference value: 0.45%); format: functional, U-87MG ATCC
# Focal adhesion kinase 1 [3] = biological target: T1, Focal adhesion kinase 1 (Homo sapiens, UniProt Q05397); test: Inhibition of FAK (unknown origin) at 10 nM relative to control
# U-87 MG [4] = test: Inhibition of cell migration in human U-87 MG cells assessed as […] at 0.1 to 1 uM by wound healing assay; format: functional, cell-based; conditions: U-87MG ATCC, dose 0.1-1 µM, time lower 24.0 hrs, time upper […]
# U-87 MG [5] = test: Induction of DNA damage in human U-87 MG cells assessed as comet tail moment at 0.1 to 2 uM incubated for 2.5 to 3 hrs by comet assay; format: functional; conditions: time 2.5-3 hrs
# U-87 MG [6] = test: Induction of apoptosis in human U-87 MG cells assessed as viable cells at 8 uM measured upto 24 hrs by Annexin V-FITC/PI staining based flow cytometry analysis (reference value: 98.4%); format: functional, U-87MG ATCC; conditions: read-out: Activity
# U-87 MG [7] = test: Induction of apoptosis in human U-87 MG cells assessed as […] in Bcl-xL level at 0.05 to 0.8 uM incubated for 24 hrs by Western blot analysis; format: functional, cell-based; conditions: U-87MG ATCC, dose 0.05-0.8 µM
# U-87 MG [8] = test: Induction of apoptosis in human U-87 MG cells assessed as early apoptotic cells at 8 uM measured upto 24 hrs by Annexin V-FITC/PI staining based flow cytometry analysis (reference value: 0.45%); format: functional, U-87MG ATCC
# U-87 MG [9] = test: Antiproliferative activity against human U-87 MG assessed as inhibition of cell growth at 0.025 to 0.1 uM by clonogenic assay relative to control; format: functional, U-87MG ATCC; conditions: dose 0.025-0.1 µM
# U-87 MG [10] = test: Induction of cell cycle arrest in human U-87 MG cells assessed as accumulation of cells at G0/G1 phase at 8 uM by propidium Iodide staining based flow cytometry analysis (reference value: 80.68%); format: functional, U-87MG ATCC
# U-87 MG [11] = test: Induction of cell cycle arrest in human U-87 MG cells assessed as accumulation of cells at G2M phase at 8 uM by propidium Iodide staining based flow cytometry analysis (reference value: 9.73%); format: functional, U-87MG ATCC
# [12] = Distribution coefficient, logD of compound in n-Octanol/water at pH 7.4; format: physicochemical
# U-87 MG [13] = test: Inhibition of AKT phosphorylation in human U-87 MG cells at 0.05 to 0.4 uM incubated for 24 hrs by Western blot analysis; format: cell-based; conditions: dose 0.05-0.4 µM
# U-87 MG [14] = test: Induction of apoptosis in human U-87 MG cells assessed as early apoptotic cells at 2 uM measured upto 24 hrs by Annexin V-FITC/PI staining based flow cytometry analysis (reference value: 0.45%); format: functional, U-87MG ATCC
# U-87 MG [15] = test: Induction of apoptosis in human U-87 MG cells assessed as necrotic cells at 4 uM measured upto 24 hrs by Annexin V-FITC/PI staining based flow cytometry analysis (reference value: 0.62%); format: functional, U-87MG ATCC
# U-87 MG [16] = test: Antiproliferative activity against human U-87 MG assessed as inhibition of cell growth at 0.005 uM in presence of Chlorambucil by clonogenic assay relative to control; format: functional, U-87MG ATCC
# U-87 MG [17] = test: Induction of cell cycle arrest in human U-87 MG cells assessed as accumulation of cells at […] at 2 uM by propidium Iodide staining based flow cytometry analysis (reference value: 1.67%); format: functional, U-87MG ATCC
# U-87 MG [18] = test: Induction of cell cycle arrest in human U-87 MG cells assessed as accumulation of cells at S phase at 4 uM by propidium Iodide staining based flow cytometry analysis (reference value: 9.59%); format: functional, U-87MG ATCC
# [19] = Cytotoxicity against human LO2 assessed as cell viability incubated for 48 hrs by MTT assay; format: toxicity, cell-based, L02; conditions: LO2 cells
# U-87 MG [20] = test: Induction of cell cycle arrest in human U-87 MG cells assessed as accumulation of cells at S phase at 2 uM by propidium Iodide staining based flow cytometry analysis (reference value: 9.59%); format: functional, U-87MG ATCC
# U-87 MG [21] = test: Induction of apoptosis in human U-87 MG cells assessed as viable cells at 4 uM measured upto 24 hrs by Annexin V-FITC/PI staining based flow cytometry analysis (reference value: 98.4%); format: functional, U-87MG ATCC; conditions: read-out: Activity
# U-87 MG [22] = test: Induction of apoptosis in human U-87 MG cells assessed as necrotic cells at 8 uM measured upto 24 hrs by Annexin V-FITC/PI staining based flow cytometry analysis (reference value: 0.62%); format: functional, U-87MG ATCC
# U-87 MG [23] = test: Inhibition of colony formation in human U-87 MG cells at 0.005 uM incubated for 14 days and subsequent media replacement with compound for every 3 days by crystal violet staining based analysis; format: functional, cell-based; conditions: U-87MG ATCC, time 14.0 day
# U-87 MG [24] = test: Induction of cell cycle arrest in human U-87 MG cells assessed as accumulation of cells at G2M phase at 4 uM by propidium Iodide staining based flow cytometry analysis (reference value: 9.73%); format: functional, U-87MG ATCC
# Focal adhesion kinase 1 [25] = biological target: T1, Focal adhesion kinase 1; test: Inhibition of FAK phosphorylation in human U-87 MG cells at 0.05 to 0.4 uM incubated for 24 hrs by Western blot analysis; format: cell-based; conditions: dose 0.05-0.4 µM
# U-87 MG [26] = test: Induction of cell cycle arrest in human U-87 MG cells assessed as accumulation of cells at […] at 8 uM by propidium Iodide staining based flow cytometry analysis (reference value: 1.67%); format: functional, U-87MG ATCC
# U-87 MG [27] = test: Induction of apoptosis in human U-87 MG cells assessed as necrotic cells at 2 uM measured upto 24 hrs by Annexin V-FITC/PI staining based flow cytometry analysis (reference value: 0.62%); format: functional, U-87MG ATCC
# U-87 MG [28] = test: Inhibition of cell migration in human U-87 MG cells assessed as […] in migration distance at 0.1 to 1 uM incubated for 24 to 48 hrs by wound healing assay; format: functional, cell-based; conditions: U-87MG ATCC, dose 0.1-1 µM, time lower 24.0 hrs, time upper […]
# U-87 MG [29] = test: Induction of cell cycle arrest in human U-87 MG cells assessed as accumulation of cells at G2M phase at 2 uM by propidium Iodide staining based flow cytometry analysis (reference value: 9.73%); format: functional, U-87MG ATCC
# U-87 MG [30] = test: Inhibition of ERK1/2 phosphorylation in human U-87 MG cells at 0.05 to 0.4 uM incubated for 24 hrs by Western blot analysis; format: cell-based; conditions: dose 0.05-0.4 µM
# U-87 MG [31] = test: Induction of cell cycle arrest in human U-87 MG cells assessed as accumulation of cells at G0/G1 phase at 4 uM by propidium Iodide staining based flow cytometry analysis (reference value: 80.68%); format: functional, U-87MG ATCC
# U-87 MG [32] = test: Induction of apoptosis in human U-87 MG cells assessed as […] in cleaved caspase-3 level at 0.05 to 0.8 uM incubated for 24 hrs by Western blot analysis; format: functional, cell-based; conditions: U-87MG ATCC, dose 0.05-0.8 µM
# U-87 MG [33] = test: Antiproliferative activity against human U-87 MG assessed as cell viability incubated for 48 hrs by MTT assay; format: functional, cell-based, U-87MG ATCC
# U-87 MG [34] = test: Induction of apoptosis in human U-87 MG cells assessed as viable cells at 2 uM measured upto 24 hrs by Annexin V-FITC/PI staining based flow cytometry analysis (reference value: 98.4%); format: functional, U-87MG ATCC; conditions: read-out: Activity
# U-251 = test: Antiproliferative activity against human U-251 assessed as cell viability incubated for 48 hrs by MTT assay; format: functional, cell-based; conditions: U-251, 48 h
# U-87 MG [35] = test: Induction of cell cycle arrest in human U-87 MG cells assessed as accumulation of cells at G0/G1 phase at 2 uM by propidium Iodide staining based flow cytometry analysis (reference value: 80.68%); format: functional, U-87MG ATCC
# U-87 MG [36] = test: Inhibition of colony formation in human U-87 MG cells at 0.005 uM incubated for 14 days and subsequent media replacement with compound for every 3 days in presence of Chlorambucil by crystal violet staining based analysis; format: functional, cell-based; conditions: U-87MG ATCC, time 14.0 day
# U-87 MG [37] = test: Antiproliferative activity against human U-87 MG assessed as inhibition of cell growth at 0.005 uM by clonogenic assay relative to control; format: functional, U-87MG ATCC
# U-87 MG [38] = test: Induction of apoptosis in human U-87 MG cells assessed as late apoptotic cells at 4 uM measured upto 24 hrs by Annexin V-FITC/PI staining based flow cytometry analysis (reference value: 0.54%); format: functional, U-87MG ATCC
# U-87 MG [39] = test: Induction of apoptosis in human U-87 MG cells assessed as late apoptotic cells at 8 uM measured upto 24 hrs by Annexin V-FITC/PI staining based flow cytometry analysis (reference value: 0.54%); format: functional, U-87MG ATCC
# U-87 MG [40] = test: Induction of cell cycle arrest in human U-87 MG cells assessed as accumulation of cells at S phase at 8 uM by propidium Iodide staining based flow cytometry analysis (reference value: 9.59%); format: functional, U-87MG ATCC
# U-87 MG [41] = test: Induction of apoptosis in human U-87 MG cells assessed as late apoptotic cells at 2 uM measured upto 24 hrs by Annexin V-FITC/PI staining based flow cytometry analysis (reference value: 0.54%); format: functional, U-87MG ATCC
# [42] = Cytotoxicity against human 2BS assessed as cell viability incubated for 48 hrs by MTT assay; format: toxicity, cell-based; conditions: 2BS cells
# U-87 MG [43] = test: Antiproliferative activity against human U-87 MG assessed as inhibition of cell growth at 0.025 to 0.1 uM in presence of Chlorambucil by clonogenic assay relative to control; format: functional, U-87MG ATCC; conditions: dose 0.025-0.1 µM
# [44] = Toxicity in BALB/c mouse implanted with human U-87 MG cells assessed as lung damage at 25 mg/kg, ip administered once daily for 15 days by H and E staining based analysis; format: organism-based; conditions: in vivo, 360 h, time 15 day
# [45] = Toxicity in BALB/c mouse implanted with human U-87 MG cells assessed as spleen damage at 25 mg/kg, ip administered once daily for 15 days by H and E staining based analysis; format: organism-based; conditions: in vivo, 360 h, time 15 day
# U-87 MG [46] = test: Antitumor activity against human U-87 MG cells xenografted in BALB/c mouse assessed as inhibition of tumor growth at 25 mg/kg, ip administered once daily for 15 days; format: functional, U-87MG ATCC; conditions: 360 h, time 15 day, read-out: TGI
# T1 sequence (Q05397 2-1052 limits assumed): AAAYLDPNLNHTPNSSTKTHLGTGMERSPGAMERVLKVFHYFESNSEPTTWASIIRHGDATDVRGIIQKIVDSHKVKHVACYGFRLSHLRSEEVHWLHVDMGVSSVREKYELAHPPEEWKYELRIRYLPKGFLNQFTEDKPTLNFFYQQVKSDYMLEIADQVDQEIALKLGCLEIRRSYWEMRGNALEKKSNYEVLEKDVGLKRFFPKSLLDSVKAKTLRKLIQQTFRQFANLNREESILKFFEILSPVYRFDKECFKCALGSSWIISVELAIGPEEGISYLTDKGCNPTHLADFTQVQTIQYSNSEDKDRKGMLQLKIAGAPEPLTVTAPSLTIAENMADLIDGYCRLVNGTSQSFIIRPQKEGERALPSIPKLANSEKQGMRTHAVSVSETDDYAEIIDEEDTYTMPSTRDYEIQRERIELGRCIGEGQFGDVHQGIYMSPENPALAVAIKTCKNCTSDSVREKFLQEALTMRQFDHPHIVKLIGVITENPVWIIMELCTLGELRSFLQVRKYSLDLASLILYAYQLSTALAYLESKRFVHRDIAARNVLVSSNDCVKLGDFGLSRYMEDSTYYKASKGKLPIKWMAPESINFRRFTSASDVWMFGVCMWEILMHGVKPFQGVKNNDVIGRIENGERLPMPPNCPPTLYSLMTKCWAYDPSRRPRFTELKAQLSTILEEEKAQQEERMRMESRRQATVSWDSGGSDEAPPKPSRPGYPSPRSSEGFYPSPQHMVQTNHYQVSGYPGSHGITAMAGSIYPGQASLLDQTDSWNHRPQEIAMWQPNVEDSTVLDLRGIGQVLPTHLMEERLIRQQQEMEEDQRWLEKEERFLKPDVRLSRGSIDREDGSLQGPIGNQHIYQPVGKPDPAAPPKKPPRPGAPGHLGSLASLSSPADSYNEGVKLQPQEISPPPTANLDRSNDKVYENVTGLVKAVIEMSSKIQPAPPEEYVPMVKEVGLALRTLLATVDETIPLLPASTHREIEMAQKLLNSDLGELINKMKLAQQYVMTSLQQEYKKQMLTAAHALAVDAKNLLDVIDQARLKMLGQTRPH
smiles,measurement,setting,value
CNC(=O)c1ccccc1Nc1nc(Nc2ccc(N3CCOCC3)cc2OC)ncc1Cl,Activity,U-87 MG [1],1.81%
same,Activity,U-87 MG [2],11%
same,inhibition,Focal adhesion kinase 1 [3],78.6%
same,inhibition,U-87 MG [4],Time-dependent-effect
same,Activity,U-87 MG [5]; U-87MG ATCC,inactive
same,viability at 8 µM,U-87 MG [6],61.2%
same,Activity,U-87 MG [7],Active
same,Activity,U-87 MG [8],26.2%
same,inhibition (INH),U-87 MG [9],60%
same,Activity,U-87 MG [10],33.93%
same,Activity,U-87 MG [11],62.41%
same,logD,[12],3.49
same,inhibition,U-87 MG [13],inactive
same,Activity,U-87 MG [14],2.78%
same,Activity,U-87 MG [15],6.39%
same,inhibition at 0.005 µM,U-87 MG [16],12%
same,Activity,U-87 MG [17],1.75%
same,Activity,U-87 MG [18],19.73%
same,IC50 at 48 h,[19],4.14 µM
same,Activity,U-87 MG [20],12.83%
same,viability at 4 µM,U-87 MG [21],78.2%
same,Activity,U-87 MG [22],0.31%
same,inhibition,U-87 MG [23],inactive
same,Activity,U-87 MG [24],23.91%
same,inhibition,Focal adhesion kinase 1 [25],inactive
same,Activity,U-87 MG [26],1.84%
same,Activity,U-87 MG [27],3.64%
same,inhibition,U-87 MG [28],Active
same,Activity,U-87 MG [29],14.62%
same,inhibition,U-87 MG [30],inactive
same,Activity,U-87 MG [31],56.37%
same,Activity,U-87 MG [32],Active
same,IC50,U-87 MG [33],2850 nM
same,viability at 2 µM,U-87 MG [34],84.3%
same,IC50,U-251,5.84 µM
same,Activity,U-87 MG [35],72.55%
same,inhibition,U-87 MG [36],inactive
same,inhibition at 0.005 µM,U-87 MG [37],~8%
same,Activity,U-87 MG [38],4.35%
same,Activity,U-87 MG [39],12.3%
same,Activity,U-87 MG [40],3.66%
same,Activity,U-87 MG [41],9.29%
same,IC50 at 48 h,[42],42.8 µM
same,inhibition (INH),U-87 MG [43],61%
Cn1nnc2c(C(N)=O)ncn2c1=O [TEMOZOLOMIDE],Activity,U-87 MG [5],11.6
same,Activity,[44],Non-toxic
same,Activity,[45],Non-toxic
same,inhibition in vivo at 25 mg/kg,U-87 MG [46],31.4%
